The numbers were not newly measured in patent US11376213B2, “Topical pharmaceutical formulation” (Futura Medical Developments Limited, priority 2016, dated 2022), which cites them from elsewhere.

Molecules are shown by their SMILES. Counter-ions that a name gives are not always drawn.

Assay in series [1]: not given
The source holds these as a separate data set.

The conditions of series [2]: factor by which greater than piroxicam.

Regarding `CC(C)Cc1ccc(C(C)C(=O)O)cc1` (centres unmarked) [Ibuprofen, isobutylphenylpropionic acid], the aqueous solubility entry was “extremely low”.

On to `O=C(O)Cc1ccccc1Nc1c(Cl)cccc1Cl` [diclofenac acid], for which the “saturated solubility in polyethylene glycol” value in series [1] (polyethylene glycol) is recorded as 11.18 % w/w. Also, the “saturated solubility in propylene glycol” value in series [1] is listed as 1.16 % w/w.

On to `O=C(O)Cc1ccccc1Nc1c(Cl)cccc1Cl` [diclofenac], for which the “efficacy index (ratio of skin penetration to potency) relative to piroxicam” value in series [2] is reported as ~10^3.

As for `O=C(O)Cc1ccccc1Nc1c(Cl)cccc1Cl` [sodium salt of diclofenac acid, diclofenac sodium], the “saturated solubility in propylene glycol” value in series [1] was “approximately 50 % w/w”.
